This note sets out measurements from US7638521B2, “3-guanidinocarbonyl-1-heteroaryl-indole derivatives, preparation process, their use as medicaments, and pharmaceutical compositions comprising them” (sanofi-aventis Deutschland GmbH, priority 2002, dated 2009).

Counter-ions that a name gives are not always drawn.

One series addresses T1, NHE-1 subtype (Homo sapiens, UniProt P19634).
T1 construct: expressed in transfected cells; host or cells: LAP-1 (parental line without endogenous NHE activity), G418 selection
In words: NHE inhibition FLIPR test (intracellular pH recovery, BCECF) in transfected LAP-1 cells. It is filed as cell-based. The note with it: transfected LAP-1 cell line expressing NHE-1 subtype, pHi recovery after acidification, read-out: IC50 (NHE1). Here is the method:
The NHE inhibitory activities (IC50 values) of the compounds according to the invention were determined by a FLIPR test. The test is performed in the FLIPR (Fluorescent Imaging Plate Reader) equipped with clear-bottomed and black-walled 96-well microtitration plates. […] The growth medium for the transfected cells (Iscove+10% foetal calf serum) also comprises G418 as selection antibiotic to ensure the presence of transfected sequences. The actual test begins by eliminating the growth medium and adding 100 μl of loading buffer per well (5 μM of BCECF-AM [2′,7′-bis(2-carboxyethyl)-5-(6)-carboxyfluoresceine acetoxymethyl ester] in 20 mM of NH4Cl, 115 mM of choline chloride, 1 mM of CaCl2, 5 mM of KCl, 20 mM of HEPES and 5 mM of glucose; pH 7.4 (adjusted with KOH). The cells are then incubated for 20 minutes at 37° C. This incubation results in the loading of the fluorescent dye into the cells, the fluorescence intensity of which depends on the pHi, and on the NH4Cl, which results in a slight basification of the cells. The precursor BCECF-AM, a non-fluorescent dye, is, as an ester, capable of crossing the membrane. The actual dye, which is incapable of crossing the membrane, is released inside the cell by esterases. After this 20-minute incubation, the loading buffer, which comprises NH4Cl and free BCECF-AM, is removed by washing three times in the cell washing device (Tecan Columbus), each wash being performed with 400 μl of washing buffer (133.8 mM of choline chloride, 4.7 mM of KCl, 1.25 mM of MgCl2, 1.25 mM of CaCl2, 0.97 mM of K2HPO4, 0.23 mM of KH2PO4, 5 mM of HEPES and 5 mM of glucose; pH 7.4 (adjusted with KOH)). The residual volume remaining in the wells is 90 μl (possibly between 50 and 125 μl). This washing step removes the free BCECF-AM and results in an intracellular acidification (pHi of 6.3-6.4) due to the removal of the external ammonium ions. As the equilibrium of the intracellular ammonium with the aqueous ammonia and the protons, by removal of the extracellular ammonium and by the subsequent immediate crossing of the aqueous ammonia across the cell membrane, is disrupted, the washing process results in intracellular protons remaining, which is the cause of the intracellular acidification. This acidification can result finally in the death of the cells if it lasts long enough. It is important here for the washing buffer to be free of sodium (<1 mM), otherwise the extracellular sodium ions would result in an immediate increase in the pHi on account of the activity of the cloned NHE isoforms. It is also important for all the buffers used (loading buffer, washing buffer and regeneration buffer) not to contain any HCO3-ions, otherwise the presence of bicarbonate would result in the activation of bicarbonate-dependent systems that disrupt the pHi regulation, which systems are contained in the LAP-1 parental cell line. The microtiter plates containing acidified cells are then transferred (up to 20 minutes after the acidification) to the FLIPR. In the FLIPR, the intracellular fluorescent dye is activated with light of a wavelength of 488 nm, which is generated by an argon laser, and the measuring parameters (laser power, illumination time and diaphragm of the […] camera integrated into the FLIPR) are chosen such that the average value of the fluorescent signal per well is between 30,000 and 35,000 relative fluorescence units. The actual measurement in the FLIPR starts with a photograph being taken by the CCD camera every two seconds under software control. After 10 seconds, the increase in the intracellular pH is initiated by adding 90 μl of regeneration buffer (133.8 mM of NaCl, 4.7 mM of KCl, 1.25 mM of MgCl2, 1.25 mM of CaCl2, 0.97 mM of K2HPO4, 0.23 mM of KH2PO4, 10 mM of HEPES and 5 mM of glucose; pH 7.4 (adjusted with NaOH)) using a 96-well pipette device incorporated into the FLIPR. Some wells, to which is added pure regeneration buffer, serve as positive controls (100% NHE activity). […]

T1 sequence (P19634 whole entry): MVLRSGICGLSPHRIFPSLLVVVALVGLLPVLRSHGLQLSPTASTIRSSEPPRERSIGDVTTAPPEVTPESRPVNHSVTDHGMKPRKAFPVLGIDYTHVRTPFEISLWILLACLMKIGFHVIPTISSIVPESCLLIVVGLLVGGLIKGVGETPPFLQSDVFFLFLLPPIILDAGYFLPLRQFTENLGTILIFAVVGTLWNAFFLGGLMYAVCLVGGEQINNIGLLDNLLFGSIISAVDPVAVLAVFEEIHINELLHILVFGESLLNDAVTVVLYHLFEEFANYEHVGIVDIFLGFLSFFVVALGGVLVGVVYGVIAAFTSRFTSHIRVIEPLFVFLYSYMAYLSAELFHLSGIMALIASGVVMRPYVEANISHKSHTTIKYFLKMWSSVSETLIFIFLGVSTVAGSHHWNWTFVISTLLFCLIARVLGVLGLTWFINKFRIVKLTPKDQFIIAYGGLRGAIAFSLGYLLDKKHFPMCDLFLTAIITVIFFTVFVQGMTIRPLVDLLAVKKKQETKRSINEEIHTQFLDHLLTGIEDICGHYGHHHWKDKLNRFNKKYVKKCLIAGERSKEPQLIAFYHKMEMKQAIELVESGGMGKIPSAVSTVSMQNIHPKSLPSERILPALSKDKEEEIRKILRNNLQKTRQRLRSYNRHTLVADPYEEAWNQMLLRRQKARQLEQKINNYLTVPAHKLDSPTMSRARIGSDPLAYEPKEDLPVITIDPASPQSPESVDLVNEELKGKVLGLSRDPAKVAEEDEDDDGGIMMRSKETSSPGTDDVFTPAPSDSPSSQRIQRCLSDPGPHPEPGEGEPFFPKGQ

Regarding `Cl.N=C(N)NC(=O)c1cn(-c2cc(C(F)(F)F)nc3ccccc23)c2ccccc12` [Example 1, 3-Guanidinocarbonyl-1-(2-(trifluoromethyl)quinol-4-yl)-1H-indole hydrochloride], the melting point (as a rule, the temperature, or range, at which the solid turns liquid) is 216 °C. For the same compound, at NHE-1 subtype, the half-maximal inhibitory concentration (IC50) – broadly, the midpoint of a concentration-inhibition curve – turned out to be 2.36 µM.
As to `Cl.N=C(N)NC(=O)c1cn(-c2ccnc3ccc(C(F)(F)F)cc23)c2ccccc12` [Example 2, 3-Guanidinocarbonyl-1-(6-(trifluoromethyl)quinol-4-yl)-1H-indole hydrochloride], the melting point amounted to 260 °C. Besides, the IC50 at NHE-1 subtype was 0.22 µM.
For `Cl.N=C(N)NC(=O)c1cn(-c2ccnc3cc(C(F)(F)F)ccc23)c2ccccc12` [Example 3, 3-Guanidinocarbonyl-1-(7-(trifluoromethyl)quinol-4-yl)-1H-indole hydrochloride], in that order: 238 °C and 0.25 µM.
For `Cl.N=C(N)NC(=O)c1cn(-c2ccnc3c(C(F)(F)F)cccc23)c2ccccc12` [Example 4, 3-Guanidinocarbonyl-1-(8-(trifluoromethyl)quinol-4-yl)-1H-indole hydrochloride], in that order: 212 °C and 1.47 µM.
Consider `COc1ccc2nccc(-n3cc(C(=O)NC(=N)N)c4ccccc43)c2c1.Cl` [Example 5, 3-Guanidinocarbonyl-1-(6-methoxyquinol-4-yl)-1H-indole hydrochloride], for which the melting point stood at 266 °C. For the same compound, the concentration for half-maximal inhibition (IC50) on NHE-1 subtype came out at 0.12 µM.
For `COc1ccc2c(-n3cc(C(=O)NC(=N)N)c4ccccc43)ccnc2c1.Cl` [Example 6, 3-Guanidinocarbonyl-1-(7-methoxyquinol-4-yl)-1H-indole hydrochloride], in that order: 266 °C and 0.24 µM.
In turn, `Cl.Cn1ccc2c(-n3cc(C(=O)NC(=N)N)c4ccccc43)ncnc21` [Example 7, 3-Guanidinocarbonyl-1-(7-methyl-7H-pyrrolo[2,3-d]pyrimidin-4-yl)-1H-indole hydrochloride] gave a melting point of 244 °C. Moreover, the IC50 at NHE-1 subtype stood at 0.0012 µM.
With `Cc1cc(-n2cc(C(=O)N=C(N)N)c3ccccc32)c2ccccc2n1` [Example 8, N-[1-(2-Methyl-quinolin-4-yl)-1H-indole-3-carbonyl]-guanidine trifluoroacetate], the half-maximal inhibitory concentration (IC50) at NHE-1 subtype stood at 0.0072 µM.
On to `NC(N)=NC(=O)c1cn(-c2ccnc3cc(Cl)ccc23)c2ccccc12` [Example 9, N-[1-(7-Chloro-quinolin-4-yl)-1H-indole-3-carbonyl]-guanidine trifluoroacetate], for which the IC50 on NHE-1 subtype worked out at 0.25 µM.
Still for that read-out and setting: the figure for `COc1ccc2c(c1)c(C(=O)N=C(N)N)c(C)n2-c1ccnc2cc(Cl)ccc12` [Example 10, N-[1-(7-Chloro-quinolin-4-yl)-5-methoxy-2-methyl-1H-indole-3-carbonyl]-guanidine trifluoroacetate] is 3.23 µM.
Same read-out and setting: next, `NC(N)=NC(=O)c1cn(-c2ccnc3ccc(F)cc23)c2ccccc12` [Example 11, N-[1-(6-Fluoro-quinolin-4-yl)-1H-indole-3-carbonyl]-guanidine trifluoroacetate]: 0.01 µM; `COc1ccc2c(c1)c(C(=O)N=C(N)N)c(C)n2-c1ccnc2ccc(F)cc12` [Example 12, N-[1-(6-Fluoro-quinolin-4-yl)-5-methoxy-2-methyl-1H-indole-3-carbonyl]-guanidine trifluoroacetate]: 2.64 µM.
On the same count and under the same terms, next, `NC(N)=NC(=O)c1cn(-c2ccnc3c(F)cccc23)c2ccccc12` [Example 13, N-[1-(8-Fluoro-quinolin-4-yl)-1H-indole-3-carbonyl]-guanidine trifluoroacetate]: 0.0025 µM; `COc1ccc2c(c1)c(C(=O)N=C(N)N)c(C)n2-c1ncnc2ccc(Cl)cc12` [Example 14, N-[1-(6-Chloro-quinazolin-4-yl)-5-methoxy-2-methyl-1H-indole-3-carbonyl]-guanidine trifluoroacetate]: 2.56 µM.
